Results: PubChem BioAssay (NCI)
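Briefly, cells in 96-well plates were exposed to five compound concentrations for 48 h, and endpoints were estimated by linear interpolation. GI50 is the concentration that inhibits growth by half. The concentration for full growth arrest is given as TGI.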

Legend:
Test in all cases: NCI anticancer screen, dose series, 48 h
[1] = system: SN12C renal
[2] = system: OVCAR-3 ovarian
[3] = system: SW-620 colon
[4] = system: SK-MEL-28 melanoma
[5] = system: COLO 205 colon
[6] = system: T-47D breast
[7] = system: MDA-MB-435
[8] = system: NCI/ADR-RES ovarian
[9] = system: MALME-3M melanoma
[10] = system: EKVX NSCLC
[11] = system: CAKI-1 renal
[12] = system: MDA-MB-468 breast
[13] = system: A549 NSCLC
[14] = system: M14 melanoma
[15] = system: KM12 colon
[16] = system: HCT-116 colon
[17] = system: HCT-15 colon
[18] = system: HT29 colon
[19] = system: SF-539 CNS
[20] = system: IGROV1 ovarian
[21] = system: ACHN renal
[22] = system: HL-60(TB) leukemia
[23] = system: SF-295 CNS
[24] = system: MCF7 breast
[25] = system: A498 renal
[26] = system: LOX IMVI melanoma
[27] = system: NCI-H522 lung
[28] = system: UACC-257 melanoma
[29] = system: HS 578T breast
[30] = system: 786-0 renal
[31] = system: CCRF-CEM leukemia
[32] = system: SK-MEL-5 melanoma
[33] = system: HOP-92 NSCLC
[34] = system: K-562 leukemia
[35] = system: OVCAR-4 ovarian
[36] = system: OVCAR-5 ovarian
[37] = system: SR leukemia
[38] = system: NCI-H460 lung
[39] = system: HCC-2998 colon
[40] = system: UACC-62 melanoma
[41] = system: SF-268 CNS
[42] = system: BT-549 breast
[43] = system: U251 CNS
[44] = system: DU-145 prostate
[45] = system: RPMI-8226 leukemia
[46] = system: HOP-62 NSCLC
[47] = system: OVCAR-8 ovarian
[48] = system: SK-OV-3 ovarian
[49] = system: RXF 393 renal
[50] = system: MOLT-4 leukemia
[51] = system: NCI-H23 lung
[52] = system: TK-10 renal
[53] = system: PC-3 prostate
[54] = system: SNB-19 CNS
[55] = system: NCI-H226 lung
[56] = system: UO-31 renal
[57] = system: MDA-MB-231 breast
[58] = system: SK-MEL-2 melanoma
[59] = system: SNB-75 CNS

CC[C@]12C=CCN3CC[C@@]4(c5ccc(OC)cc5N(C)[C@H]4[C@@](O)(C(=O)OC)[C@@H]1OC(=O)CCC[P+](C1CCCCC1)(C1CCCCC1)C1CCCCC1)[C@@H]32
GI50 [1]: 2.89 µM | TGI [1]: 10.1 µM | GI50 [2]: 1.74 µM | TGI [2]: 9.08 µM | GI50 [3]: 2.95 µM | TGI [3]: 14.6 µM | GI50 [4]: 1.08 µM | TGI [4]: 2.76 µM | GI50 [5]: 0.43 µM | TGI [5]: 1.44 µM | GI50 [6]: 1.32 µM | TGI [6]: 11.4 µM | GI50 [7]: 1.83 µM | TGI [7]: 5.33 µM | GI50 [8]: 35.6 µM | TGI [8]: > 100 µM | GI50 [9]: 1.46 µM | TGI [9]: 3.26 µM | GI50 [10]: 3.09 µM | TGI [10]: 16 µM | GI50 [11]: 16.4 µM | TGI [11]: 30.3 µM | GI50 [12]: 0.313 µM | TGI [12]: 1.29 µM | GI50 [13]: 3.46 µM | TGI [13]: 13.7 µM | GI50 [14]: 1.92 µM | TGI [14]: 8.29 µM | GI50 [15]: 1.63 µM | TGI [15]: 4.08 µM | GI50 [16]: 2.85 µM | TGI [16]: 11.4 µM | GI50 [17]: 15.3 µM | TGI [17]: 29.2 µM | GI50 [18]: 1.88 µM | TGI [18]: 4.05 µM | GI50 [19]: 2.94 µM | TGI [19]: 10.7 µM | GI50 [20]: 1.39 µM | TGI [20]: 5.28 µM | GI50 [21]: 15.2 µM | TGI [21]: 28.6 µM | GI50 [22]: 0.322 µM | TGI [22]: 1.34 µM | GI50 [23]: 4.41 µM | TGI [23]: 16.5 µM | GI50 [24]: 1.19 µM | TGI [24]: 7.67 µM | GI50 [25]: 12.4 µM | TGI [25]: 26.2 µM | GI50 [26]: 2.88 µM | TGI [26]: 10.5 µM | GI50 [27]: 0.688 µM | TGI [27]: 4.98 µM | GI50 [28]: 1.26 µM | TGI [28]: 3.34 µM | GI50 [29]: 2.45 µM | TGI [29]: 7.91 µM | GI50 [30]: 4.45 µM | TGI [30]: 16.7 µM | GI50 [31]: 1.69 µM | TGI [31]: 11.6 µM | GI50 [32]: 1.76 µM | TGI [32]: 3.28 µM | GI50 [33]: 1.01 µM | TGI [33]: 4.03 µM | GI50 [34]: 1.32 µM | TGI [34]: 12.5 µM | GI50 [35]: 2.39 µM | TGI [35]: 12.4 µM | GI50 [36]: 3.19 µM | TGI [36]: 12 µM | GI50 [37]: 1.35 µM | TGI [37]: 4.01 µM | GI50 [38]: 2.77 µM | TGI [38]: 11.3 µM | GI50 [39]: 1.7 µM | TGI [39]: 7.68 µM | GI50 [40]: 1.41 µM | TGI [40]: 3.06 µM | GI50 [41]: 3.23 µM | TGI [41]: 13 µM | GI50 [42]: 2.44 µM | TGI [42]: 5.82 µM | GI50 [43]: 0.746 µM | TGI [43]: 11.8 µM | GI50 [44]: 3.75 µM | TGI [44]: 15.2 µM | GI50 [45]: 0.383 µM | TGI [45]: 2.22 µM | GI50 [46]: 3.68 µM | TGI [46]: 13.7 µM | GI50 [47]: 2.97 µM | TGI [47]: 11.7 µM | GI50 [48]: 2.59 µM | TGI [48]: 7.57 µM | GI50 [49]: 1.47 µM | TGI [49]: 5.04 µM | GI50 [50]: 2.16 µM | TGI [50]: 6.51 µM | GI50 [51]: 2.31 µM | TGI [51]: 8.3 µM | GI50 [52]: 2.73 µM | TGI [52]: 12.1 µM | GI50 [53]: 1.71 µM | TGI [53]: 11.4 µM | GI50 [54]: 2.22 µM | TGI [54]: 11.5 µM | GI50 [55]: 4.06 µM | TGI [55]: 17.2 µM

COc1ccc2nc(Nc3cccc(NC(=O)c4ccc(CN5CCN(C)CC5)c(C(F)(F)F)c4)c3)ccc2c1
GI50 [1]: 5.49 µM | TGI [1]: 10.8 µM | GI50 [2]: 5.89 µM | TGI [2]: 11.2 µM | GI50 [56]: 5.68 µM | TGI [56]: 10.9 µM | GI50 [3]: 5.89 µM | TGI [3]: 11.6 µM | GI50 [4]: 5.33 µM | TGI [4]: 10.4 µM | GI50 [5]: 5.78 µM | TGI [5]: 11.7 µM | GI50 [6]: 4.12 µM | TGI [6]: 9.96 µM | GI50 [7]: 5.73 µM | TGI [7]: 11 µM | GI50 [9]: 4.62 µM | TGI [9]: 9.54 µM | GI50 [10]: 4.53 µM | TGI [10]: 9.61 µM | GI50 [11]: 4.9 µM | TGI [11]: 9.97 µM | GI50 [12]: 1.56 µM | TGI [12]: 7.09 µM | GI50 [13]: 4.36 µM | TGI [13]: 9.66 µM | GI50 [14]: 3.63 µM | TGI [14]: 8.58 µM | GI50 [15]: 4.05 µM | TGI [15]: 9.62 µM | GI50 [16]: 2.41 µM | TGI [16]: 7.74 µM | GI50 [17]: 1.18 µM | TGI [17]: 4.45 µM | GI50 [18]: 1.32 µM | TGI [18]: 5.08 µM | GI50 [19]: 2.08 µM | TGI [19]: 7.59 µM | GI50 [20]: 6.22 µM | TGI [20]: 12.3 µM | GI50 [21]: 4.88 µM | TGI [21]: 9.84 µM | GI50 [22]: 5.46 µM | TGI [22]: 12.4 µM | GI50 [23]: 3.41 µM | TGI [23]: 8.74 µM | GI50 [24]: 1.37 µM | TGI [24]: 6.12 µM | GI50 [25]: 7.36 µM | TGI [25]: 13.2 µM | GI50 [26]: 1.55 µM | TGI [26]: 6.05 µM | GI50 [27]: 4.88 µM | TGI [27]: 10.3 µM | GI50 [28]: 4.35 µM | TGI [28]: 9.13 µM | GI50 [29]: 4.14 µM | TGI [29]: 15 µM | GI50 [30]: 4.99 µM | TGI [30]: 10.1 µM | GI50 [31]: 2.15 µM | TGI [31]: 7.65 µM | GI50 [32]: 5.1 µM | TGI [32]: 10.2 µM | GI50 [33]: 1.36 µM | TGI [33]: 6.15 µM | GI50 [34]: 0.882 µM | TGI [34]: 2.59 µM | GI50 [35]: 4.32 µM | TGI [35]: 10 µM | GI50 [36]: 6.1 µM | TGI [36]: 11.5 µM | GI50 [37]: 1.31 µM | TGI [37]: 5.72 µM | GI50 [57]: 1.84 µM | TGI [57]: 6.49 µM | GI50 [38]: 1.88 µM | TGI [38]: 7.21 µM | GI50 [39]: 5.25 µM | TGI [39]: 10.7 µM | GI50 [40]: 6.45 µM | TGI [40]: 11.9 µM | GI50 [41]: 5.2 µM | TGI [41]: 12.5 µM | GI50 [42]: 5.58 µM | TGI [42]: 10.9 µM | GI50 [43]: 3.77 µM | TGI [43]: 8.84 µM | GI50 [44]: 5.23 µM | TGI [44]: 10.4 µM | GI50 [45]: 3.14 µM | TGI [45]: 10.3 µM | GI50 [46]: 6.36 µM | TGI [46]: 12 µM | GI50 [47]: 5.82 µM | TGI [47]: 11.1 µM | GI50 [48]: 5.99 µM | TGI [48]: 11.4 µM | GI50 [49]: 1.75 µM | TGI [49]: 6.96 µM | GI50 [50]: 1.63 µM | TGI [50]: 6.75 µM | GI50 [51]: 5.06 µM | TGI [51]: 10.4 µM | GI50 [58]: 5.98 µM | TGI [58]: 11.4 µM | GI50 [52]: 6.52 µM | TGI [52]: 12.1 µM | GI50 [53]: 2.9 µM | TGI [53]: 8.68 µM | GI50 [54]: 6.14 µM | TGI [54]: 11.5 µM | GI50 [55]: 4.6 µM | TGI [55]: 9.77 µM | GI50 [59]: 0.684 µM | TGI [59]: 6.45 µM
